{
  "source": "paper PMC10250385",
  "about": "“Pregnane X receptor agonist nomilin extends lifespan and healthspan in preclinical models through detoxification functions” (Nature Communications, 2023)",
  "molecules": {"B1": {"name": "hPXR^LBD-NCOA1^676–700 fusion protein (other)", "chain": "SERTGTQPLGVQGLTEEQRMMIRELMDAQMKTFDTTFSHFKNFRLPGVLSSGCELPESLQAPSREEAAKWSQVRKDLCSLKVSLQLRGEDGSVWNYKPPADSGGKEIFSLLPHMADMSTYMFKGIISFAKVISYFRDLPIEDQISLLKGAAFELCQLRFNTVFNAETGTWECGRLSYCLEDTAGGFQQLLLEPMLKFHYMLKKLQLHEEEYVLMQAISLFSPDRPGVLQHRVVDQLQEQFAITLKSYIECNRPQPAHRFLFLKIMAMLTELRSINAQHTQRLLRIQDIHPFATPLMQELFGITSSSGGTCPSSHSSLTERHKILHRLLQEGSPS", "notes": "spacer -Ser-Ser-Ser-Gly-Gly-Thr- between the hPXR LBD and the NCOA1 peptide; A TEV protease recognition site stood between the NCOA1 peptide and the His6 tag; Crystallised with nomilin in the ligand pocket; also called hPXR chimera; source: Sf9 (recombinant baculovirus), purified (Talon IMAC, TEV cleavage, second IMAC, SEC on Superdex 200 Increase); not shown: His6, C-terminal, cleaved"}, "B2": {"name": "nuclear receptor coactivator 1 residues 676–700 (NCOA1^676–700) (peptide, UniProt Q15788-1 676-700, looked up)", "peptide": "CPSSHSSLTERHKILHRLLQEGSPS", "notes": "In the crystal it stood on one chain with the hPXR LBD, joined to its C-terminus by the spacer SSSGGT: see m1; source: Sf9 (recombinant baculovirus), purified, as part of the fusion protein m1; not shown: His6, C-terminal, cleaved"}},
  "key": {"[1]": {"target": "T1, human pregnane X receptor (hPXR) (Homo sapiens, UniProt O75469)", "T1 sequence (O75469 130-434 limits assumed)": "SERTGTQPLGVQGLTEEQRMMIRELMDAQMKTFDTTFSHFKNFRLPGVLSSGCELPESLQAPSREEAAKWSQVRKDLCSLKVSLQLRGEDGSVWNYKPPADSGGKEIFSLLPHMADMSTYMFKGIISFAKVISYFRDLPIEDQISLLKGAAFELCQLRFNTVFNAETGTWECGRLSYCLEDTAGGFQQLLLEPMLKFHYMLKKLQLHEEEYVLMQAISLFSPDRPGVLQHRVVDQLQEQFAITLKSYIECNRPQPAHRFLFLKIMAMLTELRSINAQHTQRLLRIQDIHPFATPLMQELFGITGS", "test": "biochemical", "design": "gene NR1I2"}, "[2]": {"target": "T1, human pregnane X receptor (hPXR)", "test": "TR-FRET competitive binding assay (LanthaScreen PXR); also activates hPXR in reporter assay", "design": "gene NR1I2; hPXR-LBD-GST"}, "[3]": {"target": "the molecule itself", "test": "crystal structure; hPXR^LBD-NCOA1^676–700 co-crystallised with nomilin (1 mM), sitting drop vapour diffusion at 4 °C, 10% (v/v) 2-propanol, 100 mM imidazole/HCl pH 8.0; 2.1 Å; the homodimer is also said to form in the purification (SEC in 150 mM NaCl, 20 mM HEPES, 1 mM TCEP)"}, "[4]": {"target": "T2, ligand-binding domain (LBD) of human pregnane X receptor (hPXR), residues 130–432 (human, UniProt O75469-1 130-432)", "T2 construct": "In the crystal it stood on one chain with the NCOA1 peptide, joined by the spacer SSSGGT: see m1; also called hPXR LBD; hPXR^LBD; source: Sf9 (recombinant baculovirus), purified, as part of the fusion protein m1", "T2 sequence (looked up)": "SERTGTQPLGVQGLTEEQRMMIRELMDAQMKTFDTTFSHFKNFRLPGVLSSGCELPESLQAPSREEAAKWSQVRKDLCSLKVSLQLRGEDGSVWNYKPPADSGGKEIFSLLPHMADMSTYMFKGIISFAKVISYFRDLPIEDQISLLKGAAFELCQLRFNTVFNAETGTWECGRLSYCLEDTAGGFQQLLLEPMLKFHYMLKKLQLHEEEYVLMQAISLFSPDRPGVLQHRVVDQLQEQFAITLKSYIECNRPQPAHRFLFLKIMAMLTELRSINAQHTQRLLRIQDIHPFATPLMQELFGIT", "test": "crystal structure; hPXR^LBD-NCOA1^676–700 co-crystallised with nomilin (1 mM), sitting drop vapour diffusion at 4 °C, 10% (v/v) 2-propanol, 100 mM imidazole/HCl pH 8.0; 2.1 Å; the homodimer is also said to form in the purification (SEC in 150 mM NaCl, 20 mM HEPES, 1 mM TCEP)", "settings": "both partners purified"}},
  "data": [
    {"molecule": "CC(=O)O[C@H]1CC(=O)OC(C)(C)[C@@H]2CC(=O)[C@]3(C)[C@H](CC[C@@]4(C)[C@H](c5ccoc5)OC(=O)[C@H]5O[C@]543)[C@@]12C", "note": "[nomilin]", "values": [
      {"measurement": "IC50", "setting": "[1]", "value": 5.8, "unit": "µM"}
    ]},
    {"molecule": "CC1(C)OC(=O)C[C@H](O)[C@]2(C)[C@H]3CC[C@@]4(C)[C@H](c5ccoc5)OC(=O)[C@H]5O[C@]54[C@]3(C)C(=O)C[C@@H]12", "note": "[deacetylnomilin]", "values": [
      {"measurement": "IC50", "setting": "[2]", "value": 22.7, "unit": "µM"}
    ]},
    {"molecule": "B1", "values": [
      {"measurement": "stoichiometry N", "setting": "[3]", "value": 2}
    ]},
    {"molecule": "B2", "values": [
      {"measurement": "binding result", "setting": "[4]", "value": "binds"}
    ]}
  ]
}
